Data on six molecules can be found in ChEMBL document CHEMBL4382234, “Fluoroquinolone-isatin hybrids and their biological activities” (Eur J Med Chem, 2019).

For assay [1], the system named is Mycobacterium tuberculosis. The assay can be described thus: Potency index, ratio of gatifloxacin MIC to test compound MIC for Mycobacterium tuberculosis H37Rv. In kind it is functional.
In assay [2] the test system is Mycobacterium tuberculosis. The assay can be described thus: Antimycobacterial activity against Mycobacterium tuberculosis H37Rv after 3 to 7 days by rapid direct susceptibility test. In kind it is functional.
For assay [3], the system named is Mycobacterium tuberculosis. Description: Potency index, ratio of rifampicin MIC to test compound MIC for Mycobacterium tuberculosis H37Rv. It counts as functional.
The subject of assay [4] is Mycobacterium tuberculosis. The assay can be described thus: Potency index, ratio of isoniazid MIC to test compound MIC for Mycobacterium tuberculosis H37Rv. It counts as functional.
Another assay deals with Citrobacter freundii. Description: Antibacterial activity against Citrobacter freundii by agar dilution method. It counts as functional.
In assay [5] the test system is Mycobacterium tuberculosis. Description: Antitubercular activity against Mycobacterium tuberculosis infected in IFNgamma-deficient C57BL/6 mouse assessed bacterial load in spleen at 25 mg/kg administered once daily for 8 days measured 28 days post infection. In kind it is functional.
Assay [6] concerns Mycobacterium tuberculosis. Description: Antitubercular activity against Mycobacterium tuberculosis H37Rv by microplate alamar blue assay. It counts as functional.
The subject of the next assay is Pseudomonas aeruginosa. The assay can be described thus: Antibacterial activity against Pseudomonas aeruginosa by agar dilution method. In kind it is functional.
Another assay concerns Klebsiella pneumoniae. The assay can be described thus: Antibacterial activity against Klebsiella pneumoniae by agar dilution method. It counts as functional.
Assay [7] concerns Staphylococcus epidermidis. The assay can be described thus: Antibacterial activity against Staphylococcus epidermidis by agar dilution method. In kind it is functional.
The test system of the next assay is Staphylococcus aureus. The assay can be described thus: Antibacterial activity against Staphylococcus aureus by agar dilution method. In kind it is functional.
The subject of the next assay is Escherichia coli. The assay can be described thus: Antibacterial activity against Escherichia coli by agar dilution method. In kind it is functional.
The next assay deals with Vibrio cholerae. The assay can be described thus: Antibacterial activity against Vibrio cholerae by agar dilution method. It counts as functional.
A further assay has as its system Shigella flexneri. The assay can be described thus: Antibacterial activity against Shigella flexneri by agar dilution method. It counts as functional.
Assay [8] relates to Mycobacterium tuberculosis. Description: Antitubercular activity against Mycobacterium tuberculosis infected in IFNgamma-deficient C57BL/6 mouse assessed bacterial load in lung at 25 mg/kg administered once daily for 8 days measured 28 days post infection. In kind it is functional.
The subject of a further assay is Salmonella typhi. The assay can be described thus: Antibacterial activity against Salmonella typhi by agar dilution method. The note with it: Salmonella enterica. In kind it is functional, Salmonella enterica subsp. enterica serovar Typhi.
Assay [9] relates to Human immunodeficiency virus 1. The assay can be described thus: Antiviral activity against HIV1 3B infected in human MT4 cells after 5 days by spectrophotometric method. It counts as functional, organism-based. The note with it: Human immunodeficiency virus 1, 3B, MT4, 120 h.
Assay [10] relates to Mycobacterium tuberculosis. Description: Antimycobacterial activity against Mycobacterium tuberculosis H37Rv. It counts as functional.
Assay [11] deals with Human immunodeficiency virus 1. The assay can be described thus: Antiviral activity against HIV1 3B infected in human MT4 cells. In kind it is functional, organism-based.

Converted amounts (≈) assume the structure as drawn. A value given as a limit tells only on which side of the number the result lay.

As to `CO/N=C1/C(=O)N(CCCN2CCN(c3c(F)cc4c(=O)c(C(=O)O)cn(C5CC5)c4c3OC)CC2C)c2ccc(F)cc21` (stereo not drawn), the Ratio in [1] and in assay [3] was 2 each time. Moreover, 0.25 µg/mL (≈ 0.41 µM) was the least that counted as inhibitory in [2] (MIC).
As to `CO/N=C1/C(=O)N(CCn2cc(CN3CCC[C@H]4CN(c5c(F)cc6c(=O)c(C(=O)O)cn(C7CC7)c6c5OC)C[C@H]43)nn2)c2ccccc21`, the results for the Ratio in assay [4] and in assay [3] were >1024 and 256, respectively. The molecule further displayed an MIC in [2] of 0.1 µg/mL (≈ 0.146 µM).
On to `O=C(O)c1cn(C2CC2)c2cc(N3CCNCC3)c(F)cc2c1=O` [CIPROFLOXACIN], for which the MIC was 0.1 to 2.5 µg/mL (≈ 0.302 to 7.54 µM) in the assay with Citrobacter freundii; 2 µg/mL (≈ 6.04 µM) in assay [6]; 0.1 to 2.5 µg/mL (≈ 0.302 to 7.54 µM) against Pseudomonas aeruginosa; 0.1 to 2.5 µg/mL (≈ 0.302 to 7.54 µM) against Klebsiella pneumoniae; 0.1 to 2.5 µg/mL (≈ 0.302 to 7.54 µM) in assay [7]; 0.1 to 2.5 µg/mL (≈ 0.302 to 7.54 µM) in the assay on Staphylococcus aureus. In addition, the minimum inhibitory concentration (MIC) against Escherichia coli, in the assay with Vibrio cholerae, with Shigella flexneri and in the assay on Salmonella typhi was 0.1 to 2.5 µg/mL (≈ 0.302 to 7.54 µM) throughout. For the same molecule, the Activity in assay [5] is reported as 4.64 log10CFU; in assay [8], 6.82 log10CFU.
As to `CCn1cc(C(=O)O)c(=O)c2cc(F)c(N3CCN(CN4C(=O)/C(=N\NC(N)=S)c5cc(Cl)ccc54)CC3)cc21`, a half-maximal response in assay [9] (EC50) required 11.3 µg/mL (≈ 19.3 µM).
In turn, `CCn1cc(C(=O)O)c(=O)c2cc(F)c(N3CCN(CN4C(=O)/C(=N\NC(N)=S)c5cc(Br)ccc54)CC3)cc21` came in with an EC50 in assay [9] of 13.9 µg/mL (≈ 22 µM).
With `COc1c(N2CCN(CN3C(=O)/C(=N\c4ccc(S(=O)(=O)Nc5nc(C)cc(C)n5)cc4)c4cc(F)ccc43)C(C)C2)c(F)cc2c(=O)c(C(=O)O)cn(C3CC3)c12` (stereo not drawn), in [10], the MIC was determined as 1.22 µg/mL (≈ 1.5 µM). In assay [11], this molecule yielded an Activity of 106%. Also, the EC50 in assay [11] (Human immunodeficiency virus 1, 3B, MT4) worked out at 12.1 µg/mL (≈ 14.9 µM).
